Test results reported in patent publication US12357711B2, “PSMA binding dual mode radiotracer and therapeutic” (Technische Universität München, priority 2019, dated 2025).
pIC50: −log10 of the molar value. “And” between values parts separate entries of the source, which are not always exact repeats. Equal entries are not always repeated. Where two headings read alike, the source gives them in different places. Marks after values point to notes of the source that are not given here.

What was measured:
PSMA = target: T1, PSMA (Homo sapiens, UniProt Q04609); experiment: Determination of IC50: PSMA affinity, competitive binding on LNCaP cells against ([125I]I-BA)KuE; conditions: LNCaP cells, [125I]IB-KuE c=0.2 nM, 1 h, 4° C.
T1 construct: endogenous in cells; host or cells: LNCaP cells
T1 sequence (Q04609 whole entry): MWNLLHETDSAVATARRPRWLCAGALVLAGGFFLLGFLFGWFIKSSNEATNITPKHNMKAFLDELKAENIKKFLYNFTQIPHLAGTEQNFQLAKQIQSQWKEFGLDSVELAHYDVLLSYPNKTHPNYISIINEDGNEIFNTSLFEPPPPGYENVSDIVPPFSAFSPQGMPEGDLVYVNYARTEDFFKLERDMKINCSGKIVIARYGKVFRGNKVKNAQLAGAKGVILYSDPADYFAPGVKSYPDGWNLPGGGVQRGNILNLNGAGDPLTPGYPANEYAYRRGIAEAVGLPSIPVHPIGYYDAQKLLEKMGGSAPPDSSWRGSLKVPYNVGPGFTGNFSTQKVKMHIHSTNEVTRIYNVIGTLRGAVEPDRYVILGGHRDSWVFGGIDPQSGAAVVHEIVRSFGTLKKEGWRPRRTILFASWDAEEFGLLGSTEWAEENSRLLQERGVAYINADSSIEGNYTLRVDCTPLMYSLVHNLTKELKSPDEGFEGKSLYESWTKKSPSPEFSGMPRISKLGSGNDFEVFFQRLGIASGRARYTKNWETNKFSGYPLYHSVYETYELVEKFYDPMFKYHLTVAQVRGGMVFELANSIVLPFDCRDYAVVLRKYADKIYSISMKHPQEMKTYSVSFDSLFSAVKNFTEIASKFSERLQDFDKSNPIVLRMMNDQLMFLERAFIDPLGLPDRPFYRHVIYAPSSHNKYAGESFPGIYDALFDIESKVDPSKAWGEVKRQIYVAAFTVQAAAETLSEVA
Experimental: Data are expressed as mean±SD (n=3, in 3 different experiments).
After removal of the culture medium, the cells were treated once with 500 μL of HBSS (Hank's balanced salt solution, Biochrom, Berlin, Germany, with addition of 1% bovine serum albumin (BSA)) and left 15 min on ice for equilibration in 200 μL HBSS (1% BSA). […] Quantification of bound and free radioligand was accomplished in a γ-counter.

[1] = Octanol-water partition coefficient (n-octanol/PBS pH 7.4); assay type: physicochemical; conditions: octanol/PBS7.4
Experimental: Approximately 1 MBq of the labeled tracer was dissolved in 1 mL of a 1:1 mixture (by volumes) of phosphate buffered saline (PBS, pH 7.4) and n-octanol in an Eppendorf tube. After vigorous mixing of the suspension for 3 minutes at room temperature, the vial was centrifuged at 15000 g for 3 minutes (Biofuge 15, Heraus Sepatech, Osterode, Germany) and 100 μL aliquots of both layers were measured in a gamma counter. The experiment was repeated at least six times.
Determianation of the IogP values was carried out in phosphate buffered saline (PBS, pH 7.4) and n-octanol (=logPoct/PBS).

[2] = system: LNCaP tumor-bearing SCID mice; experiment: Biodistribution at 1 h p.i. with competition (co-injected PMPA); assay type: in vivo; conditions: co-injected with PMPA (8 mg/kg)
Experimental: FIG. 11: Biodistribution [% ID/g] of ^18F-rhPSMAs co-injected with PMPA (8 mg/kg) at 1 h p.i in LNCaP tumor-bearing SCID mice. Data are expressed as mean±SD (n=3).

[3] = system: LNCaP tumor bearing mouse; experiment: Radio-TLC analysis of intact tracer and 18F-fluoride in blood, organ and urine samples, 30 min p.i.; assay type: in vivo, mice
Experimental: For radio-thin-layer chromatography, aluminum sheets coated with silica gel 60 RP-18 F254s were used with a mobile phase consisting of a 3:2 mixture (v/v) of MeCN in H2O supplemented with 10% of 2 M aqueous NaOAc and 1% of TFA. Analysis was performed using either a Scan-RAM radio-TLC detector (LabLogic Systems Ltd., Sheffield, United Kingdom) or a CR 35 BIO phosphorimager (Duerr Medical GmbH, Bietigheim-Bissingen, Germany).
In order to quantify the relative uptake of each isomer (rhPSMA-7.1-7.4), a tumor-bearing male CB-17-SCID mouse was injected with the racemic mixture of rhPSMA-7 (180-280 MBq, SA=247-349 GBq/μmol, produced at the Klinikum rechts der Isar in a fully automated procedure). The animal was left under anesthesia for 30 min and sacrificed. Urine, blood, liver, kidneys and tumor were collected and processed to the hereafter described procedures. The urine sample was centrifuged for 5 min at 9000 rpm to yield a clear solution and directly subjected to radio-HPLC analysis. Blood was diluted to 1 mL with H2O and centrifuged twice at 13000 g for 5 min. The supernatant was collected and loaded on a Strata X cartridge (33 μm Polymeric Reversed Phase 500 mg, pre-conditioned with 5 mL MeOH, followed by 5 mL H2O). After washing with 5 mL H2O, the cartridge was eluted with a 6:4 mixture (v/v) of MeCN in H2O, supplemented with 1% TFA. The eluate was diluted with water and analysed by radio-HPLC. Tumour, kidneys and liver were homogenised using either a Potter-Elvehjem tissue grinder (Kontes Glass Co, Vineland, USA) or a MM-400 ball mill (Retsch GmbH, Haan, Germany).
The organs (tumour, kidney, liver) were separately homogenised in a 2 mL tube together with 3 grinding balls (3 mm diameter) and 1 mL of extraction buffer (850 μL 1 M HEPES pH7.4, 100 μL 20 mM PMPA and 100 μL 1M NaCl) for 10 min at 30 Hz. The homogenate was centrifuged at 13000 g for 5 min and the supernatant was collected. Subsequently, the pellet was suspended in 1 mL of extraction buffer and homogenized again with the ball mill for 10 min at 30 Hz. After centrifugation (13000 g, 5 min), both supernatants were combined and loaded on a Strata X cartridge (33 μm Polymeric Reversed Phase 500 mg, pre-conditioned with 5 mL MeOH, followed by 5 mL H2O). After washing with 5 mL H2O, the cartridge was eluted with a 6:4 mixture (v/v) of MeCN in H2O, supplemented with 1% TFA. The eluate of each organ was diluted with water and analysed by radio-HPLC.
Radio-TLC Analysis was carried out a) on urine samples by directly subjecting a small volume onto a TLC strip, b) by analysis of a small volume of the non-immobilized activity during the SPE process (the ‘breakthrough fraction’), and c) by analysis of a small volume of the cartridge eluates.
Since none of the reagents and salts normally used for protein precipitation are tested for cold fluoride and to avoid possible liberation of F-18-fluoride from the tracer by isotopic exchange, protein precipitation was not implemented in the sample preparation process—although such protein load often result in limited peak separation, peak tailing and activity that sticks at the start line. The solutions obtained after tissue extraction (or blood centrifugation) were directly used for TLC analysis.

[4] = Phosphoimager, listed as [^18F]rhPSMA7-rac
[5] = TLC Scanner, listed as [^18F]rhPSMA7-rac

With `CC(C)(C)[Si](F)(c1ccc(C(=O)NC[C@@H](NC(=O)CC[C@@H](C(=O)O)N2CCN(CC(=O)[O-])CCN(CC(=O)[O-])CCN(CC(=O)[O-])CC2)C(=O)N[C@H](CCCCNC(=O)CCC(=O)NCCC[C@@H](NC(=O)CC[C@H](NC(=O)N[C@@H](CCC(=O)O)C(=O)O)C(=O)O)C(=O)O)C(=O)O)cc1)C(C)(C)C.[Ga+3]` [rhPSMA7.3, [^19F][^natGa]D-Dap-S-DOTAGA-rhPSMA7] as the compound, how does the pIC50 (PSMA; HBSS+1% BSA, single measurements, read-out: individual IC50 measurements) read?
Its pIC50 is 8.50 and 8.54 and 8.27 and 8.24 and 8.34 and 8.35.

What about the pIC50 (PSMA; mean of individual measurements, read-out: IC50 Mean) of the same compound?
The pIC50 was 8.36.

What about the “log P Mean” value ([1]; mean of individual measurements) of the same compound?
Its value is −3.26.

What about the “individual log P measurements” value ([1]; single measurements) of the same compound?
Its value is −3.06 and −3.07 and −2.86 and −3.39 and −3.33 and −3.34 and −3.20 and −3.40 and −3.41 and −3.48 and −3.49 and −3.32 and −3.45 and −3.53 and −3.43 and −3.56 and −3.03 and −3.08 and −3.02.

What about the Biodistribution adrenals [2] of the same compound?
The Biodistribution adrenals was 0.07 ± 0.09 % ID/g.

What about the Biodistribution blood [2] of the same compound?
Its Biodistribution blood is 0.55 ± 0.14 % ID/g.

And the Biodistribution bone [2]?
Its Biodistribution bone is 0.34 ± 0.22 % ID/g.

And the Biodistribution heart [2]?
The Biodistribution heart was 0.26 ± 0.04 % ID/g.

And the Biodistribution intestine [2]?
Its Biodistribution intestine is 0.94 ± 0.97 % ID/g.

What about the Biodistribution kidneys [2] of the same compound?
Its Biodistribution kidneys is 15.5 ± 2.2 % ID/g.

And the Biodistribution liver [2]?
Its Biodistribution liver is 0.46 ± 0.14 % ID/g.

What about the Biodistribution lung [2] of the same compound?
The Biodistribution lung was 0.69 ± 0.10 % ID/g.

And the Biodistribution muscle [2]?
Its Biodistribution muscle is 0.09 ± 0.02 % ID/g.

And the Biodistribution pancreas [2]?
Its Biodistribution pancreas is 0.11 ± 0.02 % ID/g.

What about the Biodistribution spleen [2] of the same compound?
Its Biodistribution spleen is 0.35 ± 0.02 % ID/g.

And the Biodistribution stomach [2]?
Its Biodistribution stomach is 0.76 ± 0.74 % ID/g.

And the Biodistribution tumor ([2]; LNCaP tumor)?
The Biodistribution tumor was 1.5 ± 0.4 % ID/g.

What does the source list for “[^19F][^natGa]D/L-Dap-R/S-DOTAGA-rhPSMA7 [rhPSMA7-rac]”?
Intact tracer, Blood ([3]; Phosphoimager): 96.80%; Intact tracer, Kidney ([3]; Phosphoimager): 96.48%; Intact tracer, Tumor ([3]; Phosphoimager): 96.47%; ^18F-Fluoride, Blood ([3]; Phosphoimager): 3.20%; ^18F-Fluoride, Kidney ([3]; Phosphoimager): 3.52%; ^18F-Fluoride, Tumor ([3]; Phosphoimager): 4.15%; Intact tracer, Liver [3, 4]: 93.92^# % and 74.15^# %; Intact tracer, Urine [3, 4]: 98.55% and 95.85%; ^18F-Fluoride, Urine [3, 4]: 1.55% and 4.15%; Intact tracer, Kidney [3, 5]: 94.04% and 94.58%; Intact tracer, Urine [3, 5]: 82.51% and 96.2%; ^18F-Fluoride, Kidney [3, 5]: 5.96% and 5.42%
